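In this assay, cells in 96-well plates receive the compound at five concentrations for 48 hours. Endpoints are linearly interpolated between the surrounding concentrations. Here, GI50 denotes the concentration required for 50% inhibition of growth.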 Calls of active or inactive are those of the source. Rule as the data show it: active = GI50 up to about 1.1 µM and inactive = higher.
Columns and labels:
Experiment in all cases: NCI-60 cell line screen, 48 h
[1] = system: SK-MEL-2
[2] = system: UACC-62
[3] = system: OVCAR-3
[4] = system: Malme-3M
[5] = system: IGROV-1
[6] = system: HT-29
[7] = system: CCRF-CEM
[8] = system: EKVX
[9] = system: SN12C
[10] = system: SR
[11] = system: M14
[12] = system: A498
[13] = system: SK-MEL-5
[14] = system: MOLT-4
[15] = system: KM12
[16] = system: SF-295
[17] = system: UO-31
[18] = system: OVCAR-4
[19] = system: DU-145

Measured: GI50

c1ccc2c(c1)CCc1c(-c3ccncc3)n[nH]c1-2
inactive: [1] 17.9 µM | [2] 16.4 µM | [3] 16.7 µM | [4] 33.5 µM | [5] 26.4 µM | [6] 44.6 µM | [7] 14.2 µM | [8] 6.14 µM | [9] 43.5 µM | [10] 27.8 µM | [11] 22.8 µM | [12] 25.9 µM | [13] 18 µM | [14] 36 µM | [15] 21.8 µM | [16] 45.7 µM

O=C(O)C1=C(C(=O)Nc2ccccc2)C2C=CC1C2 (stereo not drawn)
inactive: [17] > 100 µM | [2] > 100 µM | [3] > 100 µM | [4] > 100 µM | [5] > 100 µM | [6] > 100 µM | [7] > 100 µM | [8] > 100 µM | [9] > 100 µM | [10] > 100 µM | [18] > 100 µM | [11] > 100 µM | [12] > 100 µM | [13] > 100 µM | [14] > 100 µM | [15] > 100 µM | [16] > 100 µM

COc1cc2cc3c4c(cc(OC)c(OC)c4c2cc1OC)CCN3C(=O)N(C)C
inactive: [17] > 100 µM | [1] > 100 µM | [2] > 100 µM | [3] > 100 µM | [4] 59.3 µM | [5] > 100 µM | [6] 83.4 µM | [7] 96.6 µM | [8] > 100 µM | [9] > 100 µM | [10] > 100 µM | [18] 89.5 µM | [11] > 10 µM | [12] 97.3 µM | [13] > 100 µM | [14] > 100 µM | [15] > 100 µM | [16] 37.8 µM

CCOP(=O)(OCC)c1cc(-c2ccccc2)ccc1N
inactive: [17] > 100 µM | [1] > 100 µM | [2] > 100 µM | [3] > 100 µM | [4] > 100 µM | [5] > 100 µM | [6] > 100 µM | [7] > 100 µM | [19] > 100 µM | [8] 41.5 µM | [18] 89.1 µM | [11] > 100 µM | [12] > 100 µM | [13] > 100 µM | [14] > 100 µM | [15] > 100 µM | [16] 92.3 µM

OC1(c2ccccc2)OC(C#Cc2ccccc2)(c2ccccc2)c2ccccc21 (stereo not drawn)
inactive: [17] 1.71 µM | [2] 1.94 µM | [3] 2.31 µM | [4] 10.6 µM | [5] 11 µM | [6] 2.02 µM | [7] 2.73 µM | [8] 3.19 µM | [9] 3.25 µM | [10] 2.5 µM | [18] 2.82 µM | [11] 2.21 µM | [12] 2.82 µM | [13] 7.89 µM | [14] 2.08 µM | [15] 1.59 µM | [16] 5.57 µM

CCOC(=O)c1c2cccccc2n2c(=O)cc(C)nc12
inactive: [17] > 100 µM | [1] > 100 µM | [2] 71.6 µM | [3] > 100 µM | [5] > 100 µM | [6] > 100 µM | [7] > 100 µM | [8] > 100 µM | [9] > 100 µM | [10] > 100 µM | [18] > 100 µM | [11] > 100 µM | [12] > 100 µM | [14] > 100 µM | [15] > 100 µM | [16] > 100 µM

O=[N+]([O-])c1cc(Cl)ccc1S(=O)(=O)N1CCCc2cc(Cl)ccc21
inactive: [17] 46.2 µM | [1] > 100 µM | [2] 19.7 µM | [3] > 100 µM | [4] 51.5 µM | [5] 30.8 µM | [6] 21 µM | [7] 6.17 µM | [19] 61.5 µM | [8] > 100 µM | [9] > 100 µM | [18] 88.9 µM | [11] > 100 µM | [12] 45.6 µM | [13] 30.8 µM | [14] 6.11 µM | [15] 51.9 µM | [16] 45.7 µM

O=C(CC(=O)c1ccccc1)C(=O)Nc1ccc(Cl)cc1
inactive: [17] > 100 µM | [1] > 100 µM | [2] > 100 µM | [3] > 100 µM | [4] > 100 µM | [5] > 100 µM | [6] > 42.8 µM | [7] > 100 µM | [8] > 100 µM | [9] > 100 µM | [10] > 100 µM | [18] > 100 µM | [11] > 100 µM | [12] > 100 µM | [13] > 100 µM | [14] > 100 µM | [15] > 100 µM | [16] > 100 µM

CC1=NN(c2nc(N)nc(C/C(N)=N/O)n2)C(C)(C)C1
inactive: [17] > 100 µM | [2] > 100 µM | [3] > 100 µM | [4] > 100 µM | [5] > 100 µM | [6] > 100 µM | [7] > 100 µM | [19] > 100 µM | [8] > 100 µM | [9] > 100 µM | [18] > 100 µM | [11] > 100 µM | [12] > 100 µM | [13] > 100 µM | [14] > 100 µM | [15] > 100 µM | [16] > 100 µM

O=C1CNS(=O)(=O)N1
inactive: [17] > 100 µM | [1] > 100 µM | [2] > 100 µM | [3] > 100 µM | [4] > 100 µM | [5] > 100 µM | [6] > 100 µM | [7] > 100 µM | [8] > 100 µM | [9] > 100 µM | [10] > 100 µM | [18] > 100 µM | [11] > 100 µM | [12] > 100 µM | [14] > 100 µM | [15] > 100 µM | [16] > 100 µM

O=C(/C=C/c1ccccc1F)c1ccc(Cl)c(Cl)c1
inactive: [17] 40.9 µM | [1] > 75 µM | [2] 52.8 µM | [3] > 44.8 µM | [4] > 92.9 µM | [5] 34.3 µM | [6] 27.3 µM | [7] 23.3 µM | [8] > 100 µM | [9] 35.6 µM | [10] 33.3 µM | [18] 44.4 µM | [11] 32.4 µM | [12] > 39.1 µM | [13] 33.5 µM | [14] 27.4 µM | [15] 19.9 µM | [16] 39.3 µM

Clc1ccc(OCc2nnc(CCCCCCCCc3nnc(COc4ccc(Cl)cc4Cl)o3)o2)c(Cl)c1
inactive: [17] 44.1 µM | [1] > 100 µM | [2] > 100 µM | [4] 9.44 µM | [5] 9.4 µM | [6] > 100 µM | [19] 85.9 µM | [8] > 100 µM | [9] > 100 µM | [18] 92.9 µM | [11] > 100 µM | [12] > 100 µM | [13] > 100 µM | [14] 14.3 µM | [15] 95.1 µM | [16] 85.1 µM

OCCC1(O)CCC(O)CC1 (stereo not drawn)
inactive: [17] > 100 µM | [1] > 100 µM | [2] > 100 µM | [3] > 100 µM | [4] > 100 µM | [5] > 100 µM | [6] > 100 µM | [7] > 100 µM | [8] > 100 µM | [10] > 100 µM | [18] > 100 µM | [11] > 100 µM | [12] > 100 µM | [13] > 100 µM | [14] > 100 µM | [15] > 100 µM | [16] > 100 µM

NC(CCSCC(F)(F)F)C(=O)O (stereo not drawn)
inactive: [17] > 100 µM | [2] > 100 µM | [3] > 100 µM | [4] > 100 µM | [5] > 100 µM | [6] > 100 µM | [7] > 100 µM | [8] > 100 µM | [9] > 100 µM | [10] > 100 µM | [18] > 100 µM | [11] > 100 µM | [12] > 100 µM | [13] > 100 µM | [14] > 100 µM | [15] > 100 µM | [16] > 100 µM

COc1cc(C2c3cc4c(cc3[C@@H](N(C)C)[C@H]3COC(=O)C23)OCO4)cc(OC)c1O (stereo partly drawn)
inactive: [17] > 100 µM | [1] 33.4 µM | [2] 33.7 µM | [4] 37.7 µM | [5] 72.1 µM | [6] 34.4 µM | [7] 49.1 µM | [8] 64.4 µM | [9] 51.4 µM | [10] 54.5 µM | [18] 42.9 µM | [11] 31 µM | [12] 23.3 µM | [13] 23.7 µM | [14] 38.2 µM | [15] 38.2 µM | [16] > 10 µM

C[C@]12CCCC(=O)C1(O)C[C@H](C(=O)O)CC2 (stereo partly drawn)
inactive: [17] > 100 µM | [1] > 100 µM | [2] > 100 µM | [3] > 100 µM | [4] > 100 µM | [5] > 100 µM | [6] > 100 µM | [7] > 100 µM | [9] > 100 µM | [10] > 100 µM | [18] > 100 µM | [11] > 100 µM | [12] > 100 µM | [13] > 100 µM | [14] > 100 µM | [15] > 100 µM | [16] > 100 µM

From ChEMBL document CHEMBL1201862, “PubChem BioAssay data set” (2004)
